Laboratory results as given in patent US9850273B2, “Combination of estrogens plus antiprogestins with significant partial agonistic effect as an effective treatment of menopausal symptoms and for prevention of the occurrence of breast cancer” (Evestra, Inc., priority 2014, dated 2017).
Where two headings read alike, the source gives them in different places.

Assays:
progesterone receptor [1] = biological target: T1, progesterone receptor (Homo sapiens, UniProt P06401); assay: PR transactivation assay, antagonistic activity (PR luciferase reporter); type: cell-based; conditions: for Ratio of IC50's: PR agonism / PR antagonism
T1 sequence (P06401 165-933 limits assumed): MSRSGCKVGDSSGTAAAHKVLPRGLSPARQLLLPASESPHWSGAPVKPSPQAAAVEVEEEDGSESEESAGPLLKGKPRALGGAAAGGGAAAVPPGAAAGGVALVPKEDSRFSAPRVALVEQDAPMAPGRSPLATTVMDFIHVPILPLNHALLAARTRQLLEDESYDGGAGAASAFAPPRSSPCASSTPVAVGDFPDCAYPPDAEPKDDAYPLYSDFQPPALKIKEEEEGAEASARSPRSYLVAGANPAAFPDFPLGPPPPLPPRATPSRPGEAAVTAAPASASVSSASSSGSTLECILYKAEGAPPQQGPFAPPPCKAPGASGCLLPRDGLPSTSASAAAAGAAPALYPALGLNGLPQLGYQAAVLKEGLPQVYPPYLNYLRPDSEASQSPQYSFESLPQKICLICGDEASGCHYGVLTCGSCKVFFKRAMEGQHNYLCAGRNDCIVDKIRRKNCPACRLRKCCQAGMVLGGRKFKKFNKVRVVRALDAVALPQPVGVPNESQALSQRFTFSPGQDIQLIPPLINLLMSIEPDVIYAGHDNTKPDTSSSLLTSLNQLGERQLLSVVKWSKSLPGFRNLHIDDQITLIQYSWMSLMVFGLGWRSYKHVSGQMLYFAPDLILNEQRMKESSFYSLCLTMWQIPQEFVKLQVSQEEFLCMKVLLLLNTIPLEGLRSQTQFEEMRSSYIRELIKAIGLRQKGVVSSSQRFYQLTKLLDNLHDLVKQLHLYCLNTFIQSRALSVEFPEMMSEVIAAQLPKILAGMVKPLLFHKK
Procedure: (§1) Transactivation Assay for Progesterone Agonist and Antagonistic Activity (See Table 1).
Experimental: PR transactivation studies was carried out in human breast cancer (T47D) cells, grown in RPMI medium without phenol red and 5% charcoal stripped fetal bovine serum, transiently transfected with PR luciferase reporter (CCS-6043L signal reporter assay kit, Qiagen). The cells were stimulated R5020 as PR agonist and treated in the presence or absence of the tested compounds for 24 hours.

progesterone receptor [2] = biological target: T2, progesterone receptor (Homo sapiens, UniProt P06401); assay: PR transactivation assay, agonistic activity (PR luciferase reporter); type: cell-based; conditions: T47D cells; for EC50: stimulant R5020, read-out: EC50
T2 sequence (P06401 679-933 limits assumed): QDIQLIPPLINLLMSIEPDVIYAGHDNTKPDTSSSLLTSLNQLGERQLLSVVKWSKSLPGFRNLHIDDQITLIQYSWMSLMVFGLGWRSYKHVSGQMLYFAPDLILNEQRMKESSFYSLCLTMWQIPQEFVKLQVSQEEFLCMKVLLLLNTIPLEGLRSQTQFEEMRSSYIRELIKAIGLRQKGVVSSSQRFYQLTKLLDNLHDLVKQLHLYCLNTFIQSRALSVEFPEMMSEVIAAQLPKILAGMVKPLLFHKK
Procedure: as §1
Experimental: PR transactivation studies was carried out in human breast cancer (T47D) cells, grown in RPMI medium without phenol red and 5% charcoal stripped fetal bovine serum, transiently transfected with PR luciferase reporter (CCS-6043L signal reporter assay kit, Qiagen). The cells were stimulated R5020 as PR agonist and treated in the presence or absence of the tested compounds for 24 hours. The effect was calculated using dual luciferase assay kit (Promega, WI)) based on RU486 as full antagonist and R5020 as agonist for progesterone receptor.

[3] = test system: estradiol-primed immature female rabbits; assay: McPhail and anti-McPhail tests in rabbits; type: in vivo, rabbit; conditions: for progestational activity (McPhail test): estradiol-primed immature female rabbit; for antiprogestational activity (anti-McPhail test): immature female rabbit
From the text: The McPhail test in the immature female rabbit is a well-established model to test progestatational and antiprogestational activity [McPhail 1934).

guinea pig [4] = assay: Guinea pig model (ovulation inhibition, uterine weight, vagina, ovary, classification); type: in vivo; conditions: for Classification: guinea pig model; for ER-/PR balance vagina. / Ovary (CL): at max. dose (10.mg/day s.c.); for Ovary (CL): CL = corpora lutea
[5] = test system: ovariectomized C57BL/6 mice; assay: Uterine weight bioassay in ovariectomized mice; type: in vivo, mouse; conditions: combined with E2, 4 weeks
Procedure: (§2) In order to determine the in vivo estrogenic action of EC313 in uterine weight and benign breast development, we have used standard uterine weight bioassay and mammary gland whole mount analysis in ovariectomized mice. […] Five different measurements were obtained from each whole-mount image. Ductal length (millimeters) was measured by drawing and measuring a straight line caliper from the most distal point of the ductal network to the nipple and end buds were identified as large bulbous profiles located at the termini of ducts. […] The reduced estrogenic effect by the treatment of EC313 was further confirmed by the gene expression studies.
(§3) Whole mounts of mammary glands of overictomized C57BL/6 mice treated with E2, EC313 0.1 and 1.0 mg/kg. Magnification—upper panel—10×, lower panel—20×. B, Uterine weight of mice treated for 4 weeks with E2, EC313 0.1 and 1.0 mg/kg. Data represented are average uterine weight in milligrams±SD (*P<0.001 vs E2-control). C-D, Total duct length and terminal end bud counts in the mammary gland whole mounts after 4 weeks of the treatment with test compounds (*P<0.001 vs E2-control).

[6] = test system: ovariectomized C57BL/6 mice; assay: Mammary gland whole mount analysis in ovariectomized mice; type: in vivo, mouse; conditions: 0.1 and 1.0 mg/kg with E2, 4 weeks
Procedure: as §2, §3

[7] = test system: ovariectomized C57BL/6 mice; assay: Gene expression in mammary glands of ovariectomized mice; type: in vivo, mouse
Procedure: as §2
Gene expression in mammary glands of ovariectomized C57BL/6 mice treated with E2, EC313 0.1 and 1.0 mg/kg. Columns are average of relative amount (ΔΔCt) of tested mRNA±SD (n=6) (**P<0.01 vs E2-control, *P<0.001 vs E2-control).

guinea pig [8] = conditions: in vivo; cited from earlier work
[9] = T47D cells, stimulant R5020, read-out: IC50 Average of 2 expts
[10] = Table 2 summary, read-out: PR antagonism (IC50)

| Structure (SMILES) | Ratio of IC50's (progesterone receptor [1]) | Antagonist rel to RU486 (%) (progesterone receptor [1]; T47D cells, stimulant R5020) | IC50 (progesterone receptor [1]; [9]) | IC50 (progesterone receptor [1]; [10]) | Agonist rel to R5020 (%) (progesterone receptor [2]) | EC50 (progesterone receptor [2]) | progestational activity (McPhail test) [3] | antiprogestational activity (anti-McPhail test) [3] | ER-/PR balance vagina.: dose at which the dominance is seen (guinea pig [4]; guinea pig) | Classification (guinea pig [4]) | Uterine Weight at max. dose (10.mg/day s.c.) (guinea pig [4]; guinea pig) | ER-/PR balance vagina. (guinea pig [4]; guinea pig) | Ovary (CL) (guinea pig [4]; guinea pig) | also measured |
| --- | --- | --- | --- | --- | --- | --- | --- | --- | --- | --- | --- | --- | --- | --- |
| C[C@]12C[C@H](c3ccc(-c4cccnc4)cc3)C3=C4CCC(=O)C=C4CCC3C1CCC21OCCC1=C(F)F (some centres unmarked) [EC-312] | 81.7 | 160% | 0.625 nM | 0.63 nM | 0.73% | 51.5 nM | active both as a progestin agonist and antagonist | active both as a progestin agonist and antagonist | ≧0.1 mg | mesoprogestin | 1.03 | PR-domin. | degenerated | progestational activity relative to CDB 2914 ([3]; assumed from McPhail test): more than ten-fold higher |
| COCC(=O)[C@@]1(OC(C)=O)CC[C@H]2[C@@H]3CCC4=CC(=O)CCC4=C3[C@@H](c3ccc(N(C)C)cc3)C[C@@]21C [CDB-4124, reference compound] | 30.7 | 300% | 0.7 nM | 0.7 nM | 1.4% | 25 nM | did not exhibit any progestational activity | higher antiprogestational activity than RU 486 |  | PR-antagonist | 1.41 | ER-domin. | deg. & | Ovulation Inhibition (guinea pig [4]; guinea pig): ≦10.0 mg |
| C[C@]12C[C@H](c3ccc(-c4ccoc4)cc3)C3=C4CCC(=O)C=C4CCC3C1CCC21OCCC1=C(F)F (some centres unmarked) [EC-313] | 9.4 | 240% | 0.5 nM | 0.5 nM | 7.8% | 4.75 nM | active both as a progestin agonist and antagonist | active both as a progestin agonist and antagonist | ≧0.1 mg | mesoprogestin | 1.13 | PR-domin. | degenerated | E2 stimulated uterine weight ([5]; 0.1 mg/kg): reduced by two fold; E2 stimulated uterine weight ([5]; 1.0 mg/kg): three fold; ductal branching and terminal end buds in whole mount analysis [6]: dose dependently reduced; PR regulated genes amphiregulin (AREG) and RANKL in mammary glands ([7]; higher dose): significantly inhibited; PR regulated genes amphiregulin (AREG) and RANKL in mammary glands ([7]; lower doses): upregulated in a moderate fashion; E2 regulated genes cyclin D1 and PS2 in mammary glands ([7]; treatment combined with E2): downregulated; Classification (previous findings, Nickisch et al, 2013) (guinea pig [8]): mesoprogestin |
